Test results reported in ChEMBL document CHEMBL5537135, “Novel antimicrobial peptides modified with fluorinated sulfono-γ-AA having high stability and targeting multidrug-resistant bacteria infections” (Eur J Med Chem, 2024).
Converted amounts (≈) assume the structure as drawn. The source made the active and inactive calls. No cut-off for these calls is given here. Numbered stars: 1 amine (or outer) side, 2 acyl side, 3 side chain; on linkers, the order of the positions; unused ones are H or OH. Square brackets hold non-standard residues; d marks the D form. Peptide text beside a SMILES is read from it. * marks the point of attachment. X4 = N[C@@H](Cc1ccccc1)CN(CC(=O)[*:2])[*:1]; X1 = O=S(=O)(c1ccc(C(F)(F)F)cc1)*

What was measured:
[1] = test system: Pseudomonas aeruginosa; assay: Antimicrobial activity against multidrug-resistant Pseudomonas aeruginosa 157 assessed as inhibition of visible bacterial growth incubated for 18 hrs by broth-dilution method; format: functional
[2] = test system: Pseudomonas aeruginosa; assay: Antimicrobial activity against multidrug-resistant Pseudomonas aeruginosa 124 assessed as inhibition of visible bacterial growth incubated for 18 hrs by broth-dilution method; format: functional
[3] = test system: Bacillus subtilis; assay: Antimicrobial activity against Bacillus subtilis ATCC 23857 assessed as inhibition of visible bacterial growth incubated for 18 hrs by broth-dilution method; format: functional
[4] = test system: Escherichia coli; assay: Antimicrobial activity against Escherichia coli ATCC 25922 assessed as inhibition of visible bacterial growth incubated for 18 hrs by broth-dilution method; format: functional
[5] = test system: Staphylococcus aureus; assay: Antibacterial activity against antibiotics-resistant Staphylococcus aureus ATCC 33591 assessed as reduction in microbial growth; format: functional
[6] = test system: Salmonella typhimurium; assay: Antimicrobial activity against Salmonella typhimurium ATCC 14028 assessed as inhibition of visible bacterial growth incubated for 18 hrs by broth-dilution method; format: functional, Salmonella enterica subsp. enterica serovar Typhimurium; conditions: Salmonella enterica
[7] = test system: Pseudomonas aeruginosa; assay: Antimicrobial activity against multidrug-resistant Pseudomonas aeruginosa 119 assessed as inhibition of visible bacterial growth incubated for 18 hrs by broth-dilution method; format: functional
[8] = test system: Pseudomonas aeruginosa; assay: Antimicrobial activity against multidrug-resistant Pseudomonas aeruginosa 156 assessed as inhibition of visible bacterial growth incubated for 18 hrs by broth-dilution method; format: functional
[9] = test system: Staphylococcus epidermidis; assay: Antimicrobial activity against Staphylococcus epidermidis ATCC 12228 assessed as inhibition of visible bacterial growth incubated for 18 hrs by broth-dilution method; format: functional
[10] = test system: Staphylococcus aureus; assay: Antimicrobial activity against Staphylococcus aureus ATCC 25923 assessed as inhibition of visible bacterial growth incubated for 18 hrs by broth-dilution method; format: functional
[11] = test system: Pseudomonas aeruginosa; assay: Antimicrobial activity against multidrug-resistant Pseudomonas aeruginosa 050 assessed as inhibition of visible bacterial growth incubated for 18 hrs by broth-dilution method; format: functional
[12] = test system: Pseudomonas aeruginosa; assay: Antimicrobial activity against multidrug-resistant Pseudomonas aeruginosa 125 assessed as inhibition of visible bacterial growth incubated for 18 hrs by broth-dilution method; format: functional
[13] = test system: Pseudomonas aeruginosa; assay: Antimicrobial activity against multidrug-resistant Pseudomonas aeruginosa 061 assessed as inhibition of visible bacterial growth incubated for 18 hrs by broth-dilution method; format: functional
[14] = test system: Acinetobacter baumannii; assay: Antimicrobial activity against Acinetobacter baumannii ATCC 19606 assessed as inhibition of visible bacterial growth incubated for 18 hrs by broth-dilution method; format: functional
[15] = test system: Staphylococcus aureus; assay: Antimicrobial activity against methicillin-resistant Staphylococcus aureus ATCC 33591 assessed as inhibition of visible bacterial growth incubated for 18 hrs by broth-dilution method; format: functional
[16] = test system: Pseudomonas aeruginosa; assay: Antimicrobial activity against multidrug-resistant Pseudomonas aeruginosa 085 assessed as inhibition of visible bacterial growth incubated for 18 hrs by broth-dilution method; format: functional
[17] = test system: Pseudomonas aeruginosa; assay: Antibacterial activity against Pseudomonas aeruginosa ATCC 27853 infected in C57BL/6 mouse pneumonia model assessed as log reduction in bacterial load in lung at 5 mg/kg, ip administered for 1 to 48 hrs and measured after 3 days; format: functional; conditions: time 1-120 hrs
[18] = test system: Pseudomonas aeruginosa; assay: Antimicrobial activity against multidrug-resistant Pseudomonas aeruginosa 073 assessed as inhibition of visible bacterial growth incubated for 18 hrs by broth-dilution method; format: functional
[19] = test system: Pseudomonas aeruginosa; assay: Antibacterial activity against antibiotics-resistant Pseudomonas aeruginosa […] assessed as reduction in microbial growth; format: functional
[20] = test system: Pseudomonas aeruginosa; assay: Antimicrobial activity against multidrug-resistant Pseudomonas aeruginosa 516 assessed as inhibition of visible bacterial growth incubated for 18 hrs by broth-dilution method; format: functional
[21] = test system: Pseudomonas aeruginosa; assay: Antimicrobial activity against Pseudomonas aeruginosa ATCC 27853 assessed as inhibition of visible bacterial growth incubated for 18 hrs by broth-dilution method; format: functional
[22] = test system: Staphylococcus aureus; assay: Antimicrobial activity against methicillin-resistant Staphylococcus aureus ATCC 33591 in presence of mouse serum; format: functional, organism-based
[23] = test system: Staphylococcus aureus; assay: Antimicrobial activity against methicillin-resistant Staphylococcus aureus 7 assessed as inhibition of visible bacterial growth incubated for 18 hrs by broth-dilution method; format: functional
[24] = test system: Pseudomonas aeruginosa; assay: Antimicrobial activity against Pseudomonas aeruginosa ATCC 27853 in presence of human serum; format: functional, organism-based
[25] = test system: Staphylococcus aureus; assay: Antimicrobial activity against methicillin-resistant Staphylococcus aureus 5 assessed as inhibition of visible bacterial growth incubated for 18 hrs by broth-dilution method; format: functional
[26] = test system: Staphylococcus aureus; assay: Antimicrobial activity against methicillin-resistant Staphylococcus aureus 3 assessed as inhibition of visible bacterial growth incubated for 18 hrs by broth-dilution method; format: functional
[27] = test system: Staphylococcus aureus; assay: Antimicrobial activity against methicillin-resistant Staphylococcus aureus 1 assessed as inhibition of visible bacterial growth incubated for 18 hrs by broth-dilution method; format: functional
[28] = test system: Staphylococcus aureus; assay: Antimicrobial activity against Staphylococcus aureus ATCC 25923 assessed as fold change in MIC in presence of salt solution; format: functional
[29] = test system: Staphylococcus aureus; assay: Antimicrobial activity against methicillin-resistant Staphylococcus aureus 9 assessed as inhibition of visible bacterial growth incubated for 18 hrs by broth-dilution method; format: functional
[30] = test system: Staphylococcus aureus; assay: Antimicrobial activity against methicillin-resistant Staphylococcus aureus ATCC 33591 in presence of human serum; format: functional, organism-based
[31] = test system: Staphylococcus aureus; assay: Antimicrobial activity against Staphylococcus aureus ATCC 25923 in presence of human serum; format: functional, organism-based
[32] = test system: Pseudomonas aeruginosa; assay: Antimicrobial activity against Pseudomonas aeruginosa ATCC 27853 in presence of mouse serum; format: functional, organism-based
[33] = test system: Staphylococcus aureus; assay: Antimicrobial activity against methicillin-resistant Staphylococcus aureus 10 assessed as inhibition of visible bacterial growth incubated for 18 hrs by broth-dilution method; format: functional
[34] = test system: Staphylococcus aureus; assay: Antimicrobial activity against methicillin-resistant Staphylococcus aureus 4 assessed as inhibition of visible bacterial growth incubated for 18 hrs by broth-dilution method; format: functional
[35] = Stability in human serum assessed as half life measured for 5 hrs by RP-HPLC analysis; format: ADME, cell-free
[36] = test system: Staphylococcus aureus; assay: Antimicrobial activity against Staphylococcus aureus ATCC 25923 in presence of mouse serum; format: functional, organism-based
[37] = test system: Staphylococcus aureus; assay: Antimicrobial activity against Staphylococcus aureus ATCC 25923 assessed as reduction in bacterial growth in presence of Ca2+; format: functional
[38] = test system: Erythrocyte; assay: Hemolytic activity against mouse Red blood cell incubated for 1 hr; format: toxicity, cell-based
[39] = test system: Staphylococcus aureus; assay: Antimicrobial activity against methicillin-resistant Staphylococcus aureus 6 assessed as inhibition of visible bacterial growth incubated for 18 hrs by broth-dilution method; format: functional
[40] = test system: Staphylococcus aureus; assay: Antimicrobial activity against methicillin-resistant Staphylococcus aureus 8 assessed as inhibition of visible bacterial growth incubated for 18 hrs by broth-dilution method; format: functional
[41] = test system: Staphylococcus aureus; assay: Antimicrobial activity against methicillin-resistant Staphylococcus aureus 2 assessed as inhibition of visible bacterial growth incubated for 18 hrs by broth-dilution method; format: functional
[42] = Toxicity in mouse assessed as sluggish behavior at 20 mg/kg, ip measured for 30 to 60 mins; format: organism-based; conditions: in vivo, time 30-60 min

| Compound | MIC [1] | MIC [2] | MIC [3] | MIC [4] | MIC [6] | MIC [7] | MIC [8] | MIC [9] | MIC [10] | MIC [11] | MIC [12] | MIC [13] | MIC [14] | MIC [15] | MIC [16] | MIC [18] | MIC [20] | MIC [21] | further results |
| --- | --- | --- | --- | --- | --- | --- | --- | --- | --- | --- | --- | --- | --- | --- | --- | --- | --- | --- | --- |
| CC(C)(O/N=C(\C(=O)N[C@@H]1C(=O)N2C(C(=O)[O-])=C(C[n+]3ccccc3)CS[C@H]12)c1csc(N)n1)C(=O)O [CEFTAZIDIME] | 1 µg/mL (≈ 1.83 µM) | 256 µg/mL (≈ 468 µM) | 8 µg/mL (≈ 14.6 µM) | 1 µg/mL (≈ 1.83 µM) | 256 µg/mL (≈ 468 µM) | 1 µg/mL (≈ 1.83 µM) | 256 µg/mL (≈ 468 µM) | 256 µg/mL (≈ 468 µM) | 4 µg/mL (≈ 7.32 µM) | 1 µg/mL (≈ 1.83 µM) | 2 µg/mL (≈ 3.66 µM) | 1 µg/mL (≈ 1.83 µM) | 4 µg/mL (≈ 7.32 µM) | 258 µg/mL (≈ 472 µM) | 1 µg/mL (≈ 1.83 µM) | 1 µg/mL (≈ 1.83 µM) | 1 µg/mL (≈ 1.83 µM) | 1 µg/mL (≈ 1.83 µM) | MIC [5]: 32 µg/mL; log(activity) [17]: 4.75; MIC [19]: 32 µg/mL |
| CC(C)C[C@H](NC(=O)[C@H](CC(C)C)NC(=O)[C@H](CCCCN)NC(=O)[C@H](CCCCN)NC(=O)[C@H](CC(C)C)NC(=O)[C@H](C)NC(=O)[C@H](CCCCN)NC(=O)CN(C[C@@H](N)Cc1ccccc1)S(=O)(=O)c1ccc(C(F)(F)F)cc1)C(N)=O (X1-[X4]KALKKLL-NH2) | 4 µg/mL (≈ 3.3 µM) | 4 µg/mL (≈ 3.3 µM) | 4 µg/mL (≈ 3.3 µM) | 16 µg/mL (≈ 13.2 µM) | 16 µg/mL (≈ 13.2 µM) | 4 µg/mL (≈ 3.3 µM) | 16 µg/mL (≈ 13.2 µM) | 8 µg/mL (≈ 6.61 µM) | 8 µg/mL (≈ 6.61 µM) | 8 µg/mL (≈ 6.61 µM) | 8 µg/mL (≈ 6.61 µM) | 4 µg/mL (≈ 3.3 µM) | 16 µg/mL (≈ 13.2 µM) | 8 µg/mL (≈ 6.61 µM) | 8 µg/mL (≈ 6.61 µM) | 8 µg/mL (≈ 6.61 µM) | 8 µg/mL (≈ 6.61 µM) | 8 µg/mL (≈ 6.61 µM) | Activity [22]: inactive; MIC [23]: 8 µg/mL (≈ 6.61 µM); Activity [24]: Active; MIC [25]: 8 µg/mL (≈ 6.61 µM); MIC [26]: 8 µg/mL (≈ 6.61 µM); MIC [27]: 4 µg/mL (≈ 3.3 µM); fold change (FC) [28]: 0.25; MIC [29]: 8 µg/mL (≈ 6.61 µM); Activity [30]: Active; Activity [31]: Active; Activity [32]: inactive; MIC [33]: 8 µg/mL (≈ 6.61 µM); MIC [34]: 8 µg/mL (≈ 6.61 µM); half-life [35]: 236 min; Activity [36]: inactive; MIC [37]: 32 µg/mL; MHC [38]: 256 µg/mL; MIC [39]: 8 µg/mL (≈ 6.61 µM); MIC [40]: 8 µg/mL (≈ 6.61 µM); MIC [41]: 8 µg/mL (≈ 6.61 µM) |
| POLYMYXIN B | – | – | – | – | – | – | – | – | – | – | – | – | – | – | – | – | – | – | Activity [42]: Toxic |
